Article PMC10895678 (Journal of Medicinal Chemistry, 2024)
≈ marks a conversion by molar mass, not a printed value. Read-outs that look alike come from different tables or passages of the source.

Assays:
[1] = Kinetic solubility (turbidimetry); format: physicochemical; details: PBS pH 7.4, 1% DMSO, 25 °C
M. bovis BCG = assay: microbe, parasite or virus in culture; format: cell-based, Mycobacterium bovis BCG; details: for MIC99 / MIC50: Mycobacterium tuberculosis variant bovis BCG, BCG; for MIC50: read-out: MIC50 BCG; for increase in activity against M. bovis BCG compared to BGAz-001: fold, from MIC99
CYP1A2 = biological target: T1, CYP1A2 (Homo sapiens, UniProt P05177); assay: Cytochrome P450 inhibition, CYP1A2; format: in vitro ADME; details: human liver microsomes
T1 construct: from tissue; host or cells: human liver microsomes
T1 sequence (P05177 1-516): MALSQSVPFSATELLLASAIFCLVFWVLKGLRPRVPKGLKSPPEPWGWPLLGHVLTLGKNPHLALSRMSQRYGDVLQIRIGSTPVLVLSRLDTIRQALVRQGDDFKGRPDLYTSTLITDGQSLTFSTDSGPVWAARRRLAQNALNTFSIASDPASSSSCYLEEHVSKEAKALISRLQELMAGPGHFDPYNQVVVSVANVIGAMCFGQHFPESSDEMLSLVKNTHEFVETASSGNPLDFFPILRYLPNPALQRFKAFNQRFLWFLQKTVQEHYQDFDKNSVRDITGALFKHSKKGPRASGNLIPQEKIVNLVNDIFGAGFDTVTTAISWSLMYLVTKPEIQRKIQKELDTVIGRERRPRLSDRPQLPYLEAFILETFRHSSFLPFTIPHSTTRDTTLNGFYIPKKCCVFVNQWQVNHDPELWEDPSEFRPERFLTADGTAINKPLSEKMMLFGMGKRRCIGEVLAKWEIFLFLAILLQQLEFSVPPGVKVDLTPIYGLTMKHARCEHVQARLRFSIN
Protocol: (§1) Compounds were solubilized to 10 mM in DMSO. The BGAz compounds were incubated at concentrations of 0.003, 0.009, 0.03, 0.08, 0.25, 0.74, 2.2, 6.7, and 20 μM with CYP1A2, CYP2C9, CYP2C19, and CYP2D6 at 37 °C in the presence of the drug-like probe substrate […] the Phase 1 cofactor NADPH (1 mM). The formation of metabolites of the drug-like probe substrates in the absence and presence of the BGAz compound was monitored by LC-MS/MS, and the IC50 value was determined. All assays had two replicates per compound and included a positive control inhibitor.

[2] = Mouse PPB, rapid equilibrium dialysis; format: in vitro ADME; details: mouse plasma (100%), RED, 37 °C
Protocol: Compounds were solubilized (10 mM in DMSO), and rapid equilibrium dialysis (RED) was used to measure the percentage binding to mouse plasma protein of the BGAz compounds at a final concentration of 5 μM. The BGAz compound was incubated in 100% mouse plasma and dialyzed against buffer in a RED device for 4 h at 37 °C in a 5% CO2 incubator, with continuous shaking at 200 rpm. Samples were matrix-matched and analyzed by LC-MS/MS against a six-point standard curve prepared with 100% plasma. All experiments were performed in triplicate.

hERG = hERG (Homo sapiens, UniProt Q12809); assay: cell-based; format: cell-based; details: for IC50: CHO cells expressing hERG, eight-point curve
hERG, sequence (Q12809 whole entry): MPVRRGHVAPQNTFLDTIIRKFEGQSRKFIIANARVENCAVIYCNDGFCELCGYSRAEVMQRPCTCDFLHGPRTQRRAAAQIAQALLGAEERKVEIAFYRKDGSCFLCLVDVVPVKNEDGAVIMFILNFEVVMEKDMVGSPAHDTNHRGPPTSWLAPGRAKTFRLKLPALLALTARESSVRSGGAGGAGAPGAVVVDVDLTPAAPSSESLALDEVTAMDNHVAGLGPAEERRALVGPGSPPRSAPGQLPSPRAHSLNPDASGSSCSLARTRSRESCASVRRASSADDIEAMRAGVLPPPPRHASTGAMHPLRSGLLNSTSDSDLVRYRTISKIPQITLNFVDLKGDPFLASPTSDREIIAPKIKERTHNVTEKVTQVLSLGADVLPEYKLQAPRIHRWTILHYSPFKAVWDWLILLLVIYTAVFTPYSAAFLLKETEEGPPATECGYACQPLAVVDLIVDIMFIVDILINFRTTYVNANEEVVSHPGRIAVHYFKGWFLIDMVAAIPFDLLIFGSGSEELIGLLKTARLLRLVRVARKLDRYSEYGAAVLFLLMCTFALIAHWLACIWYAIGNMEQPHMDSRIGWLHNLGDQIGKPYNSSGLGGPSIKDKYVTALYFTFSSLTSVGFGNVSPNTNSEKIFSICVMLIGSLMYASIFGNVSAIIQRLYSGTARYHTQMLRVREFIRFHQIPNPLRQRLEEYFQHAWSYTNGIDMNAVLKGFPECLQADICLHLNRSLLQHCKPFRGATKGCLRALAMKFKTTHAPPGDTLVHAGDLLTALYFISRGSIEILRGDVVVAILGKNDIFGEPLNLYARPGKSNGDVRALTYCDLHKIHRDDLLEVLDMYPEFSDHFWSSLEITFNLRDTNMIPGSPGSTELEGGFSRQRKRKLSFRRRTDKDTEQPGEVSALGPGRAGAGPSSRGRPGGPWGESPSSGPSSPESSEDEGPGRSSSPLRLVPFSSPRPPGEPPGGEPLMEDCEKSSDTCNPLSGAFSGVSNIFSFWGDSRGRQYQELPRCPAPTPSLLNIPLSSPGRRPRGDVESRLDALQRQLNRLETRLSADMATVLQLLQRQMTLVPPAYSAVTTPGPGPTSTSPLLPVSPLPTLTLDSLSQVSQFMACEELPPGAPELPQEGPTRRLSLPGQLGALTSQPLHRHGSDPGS
Protocol: Compounds were solubilized to 30 mM in DMSO before dilution in PBS to […]. […] Eight-point concentration–response curves were generated using 3.16-fold serial dilutions from the top test concentration. Electrophysiological recordings were made from a Chinese Hamster Ovary cell line stably expressing the full length hERG channel. Single cell ionic currents were measured in the perforated patch clamp configuration (100 μg mL^–1 amphotericin) at room temperature (21–23 °C) using an IonWorks Quattro instrument (Molecular Devices). The internal solution contained (mM) 140 KCl, 1 MgCl2, 1 EGTA, and 20 HEPES and was buffered to pH 7.3. The external solution [PBS contained (mM): 138 NaCl, 2.7 KCl, 0.9 CaCl2, 0.5 MgCl2, 8 Na2HPO4, and 1.5 KH2PO4 buffered to pH 7.4]. Cells were clamped at a holding potential of −70 mV for 30 s and then stepped to +40 mV for one second. This was followed by a hyperpolarising step of 1 s to −30 mV to evoke the hERG tail current. Currents were measured from the tail step and referenced to the holding current. Compounds were then incubated for 3–4 min prior to a second measurement of the hERG signal using an identical pulsetrain.

CYP2C9 = CYP2C9 (Homo sapiens, UniProt P11712); assay: biochemical; format: in vitro ADME; details: for IC50: human liver microsomes
CYP2C9, sequence (P11712 whole entry): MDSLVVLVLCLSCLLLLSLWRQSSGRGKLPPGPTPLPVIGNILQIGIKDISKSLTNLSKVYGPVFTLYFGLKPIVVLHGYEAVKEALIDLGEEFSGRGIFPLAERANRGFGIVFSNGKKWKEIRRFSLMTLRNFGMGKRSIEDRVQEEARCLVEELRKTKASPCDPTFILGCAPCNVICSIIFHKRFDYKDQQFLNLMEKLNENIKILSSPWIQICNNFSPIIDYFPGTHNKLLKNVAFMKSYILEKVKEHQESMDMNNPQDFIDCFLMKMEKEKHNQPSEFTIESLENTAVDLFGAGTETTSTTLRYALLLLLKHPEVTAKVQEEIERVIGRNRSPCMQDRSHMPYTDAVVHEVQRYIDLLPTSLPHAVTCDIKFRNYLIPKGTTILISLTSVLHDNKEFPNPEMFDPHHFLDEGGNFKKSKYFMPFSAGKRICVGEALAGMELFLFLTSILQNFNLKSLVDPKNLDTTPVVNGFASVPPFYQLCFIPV
Protocol: as §1

CYP2D6 = CYP2D6 (Homo sapiens, UniProt P10635); assay: biochemical; format: in vitro ADME; details: human liver microsomes
CYP2D6, sequence (P10635 whole entry): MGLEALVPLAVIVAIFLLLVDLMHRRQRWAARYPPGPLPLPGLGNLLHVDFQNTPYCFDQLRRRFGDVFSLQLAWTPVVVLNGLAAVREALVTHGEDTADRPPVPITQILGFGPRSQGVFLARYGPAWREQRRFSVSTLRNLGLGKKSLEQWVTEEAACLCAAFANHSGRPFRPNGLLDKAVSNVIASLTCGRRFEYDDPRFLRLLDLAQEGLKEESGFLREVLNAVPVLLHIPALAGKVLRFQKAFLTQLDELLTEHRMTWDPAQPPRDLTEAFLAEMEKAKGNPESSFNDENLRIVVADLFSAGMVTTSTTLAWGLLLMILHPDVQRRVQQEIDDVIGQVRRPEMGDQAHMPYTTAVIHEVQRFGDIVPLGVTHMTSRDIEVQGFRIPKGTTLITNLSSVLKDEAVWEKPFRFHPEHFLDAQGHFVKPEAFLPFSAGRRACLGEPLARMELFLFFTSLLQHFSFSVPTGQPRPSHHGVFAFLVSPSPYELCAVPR
Protocol: as §1

CYP2C19 = CYP2C19 (Homo sapiens, UniProt P33261); assay: biochemical; format: in vitro ADME; details: for IC50 / CYP2C19 inhibition (in words): human liver microsomes
CYP2C19, sequence (P33261 whole entry): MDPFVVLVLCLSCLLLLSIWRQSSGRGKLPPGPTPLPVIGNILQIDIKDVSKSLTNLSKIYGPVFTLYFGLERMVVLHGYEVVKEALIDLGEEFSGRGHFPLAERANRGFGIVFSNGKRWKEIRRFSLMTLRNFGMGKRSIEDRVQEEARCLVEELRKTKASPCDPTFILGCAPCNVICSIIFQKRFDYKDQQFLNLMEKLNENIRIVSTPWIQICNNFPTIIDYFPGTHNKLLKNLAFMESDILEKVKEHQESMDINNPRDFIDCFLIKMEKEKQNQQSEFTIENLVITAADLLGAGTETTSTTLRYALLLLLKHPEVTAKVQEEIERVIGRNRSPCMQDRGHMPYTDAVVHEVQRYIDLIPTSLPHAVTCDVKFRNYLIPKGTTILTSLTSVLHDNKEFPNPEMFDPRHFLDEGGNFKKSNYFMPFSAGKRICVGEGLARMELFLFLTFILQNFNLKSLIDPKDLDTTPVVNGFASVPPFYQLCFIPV
Protocol: as §1

[3] = Mouse microsomal clearance; format: in vitro ADME; details: 0.5 mg/mL mouse microsomes
Protocol: Compounds were solubilized (10 mM in DMSO). 1 μM of BGAz compound was incubated with 0.5 mg/mL mouse microsomes in the presence or absence of the Phase 1 cofactor NADPH (1 mM) at 37 °C for 0, 5, 10, 15, and 30 min. The disappearance of the BGAz compound was assessed by LC-MS/MS. All experiments were performed with two replicates per compound and were validated by the inclusion of up to three species-specific control compounds. Data output consists of mean intrinsic clearance (CLint) and half-life (t1/2) measurements.

M. tuberculosis H37Rv = assay: MIC, resazurin microtiter assay (REMA), H37Rv; format: cell-based; details: Mycobacterium tuberculosis, drug-sensitive reference strain, read-out: M. tb H37Rv MIC99
Protocol: The previously described resazurin microtiter assay (REMA) plate method was used.[73],[74] Compounds were two-fold serially diluted in CAMR Mycobacterium Medium MOD2 (CMM MOD2).[75] Individual wells, in a 96-well plate, were inoculated with 1 × 10^6 CFU mL^–1 bacilli and incubated for 7 days at 37 °C with agitation (200 rpm). Following this, resazurin solution was added to wells (0.02% (w/v) in PBS pH 7.4, supplemented with 5% Tween 80).[76] The 96-well plates were incubated at room temperature for 6 h. The OD570nm of each well was recorded using a Tecan Sunrise plate reader. The minimum inhibitory concentration (MIC99) was calculated using a modified Gompertz function.[77] The optical density measurements for each drug concentration were compared to vehicle control to determine the percentage reduction in bacterial optical density.

[4] = preincubated 30 min prior to NADPH, read-out: CYP1A2 [pre-inc] IC50
[5] = without pre-incubation, read-out: CYP1A2 IC50
[6] = preincubated 30 min prior to NADPH, read-out: CYP2C9 [pre-inc] IC50
[7] = without pre-incubation, read-out: CYP2C9 IC50
[8] = preincubated 30 min prior to NADPH, read-out: CYP2D6 [pre-inc] IC50
[9] = without pre-incubation, read-out: CYP2D6 IC50
[10] = preincubated 30 min prior to NADPH, read-out: CYP2C19 [pre-inc] IC50
[11] = without pre-incubation, read-out: CYP2C19 IC50

SMILES | solubility kinetic at 5 min [1] | MIC99 (M. bovis BCG; read-out: BCG MIC99) | MIC50 (M. bovis BCG) | MIC99 (M. bovis BCG; read-out: MIC99 BCG) | increase in activity against M. bovis BCG compared to BGAz-001 (M. bovis BCG) | IC50 (CYP1A2; [4]) | IC50 (CYP1A2; [5]) | fraction unbound at 4 h, 5 μM [2] | IC50 (hERG) | IC50 (CYP2C9; [6]) | IC50 (CYP2C9; [7]) | CYP2D6 inhibition (in words) (CYP2D6) | IC50 (CYP2D6; [8]) | IC50 (CYP2D6; [9]) | IC50 (CYP2C19; [10]) | IC50 (CYP2C19; [11]) | microsomal CLint at 1 μM [3] | MIC99 (M. tuberculosis H37Rv) | CYP2C19 inhibition (in words) (CYP2C19) | other results
Brc1cc(Br)cc(C2CC(CN3CCCC3)N2Cc2ccccc2Br)c1 (centres unmarked) [BGAz-004] | 9 µM (≈ 4.89 µg/mL) | 14 µM (≈ 7.6 µg/mL) | 15 µM (≈ 8.15 µg/mL) | 14 µM (≈ 7.6 µg/mL) | approximately three- to four-fold increase | > 20 µM | > 20 µM | < 0.01 | 25 µM | 17.8 µM | > 20 µM | significant inhibition | 1.05 µM | 1.97 µM | 2.04 µM | > 15.1 µM | 192 µL/min/mg | 3.3 µM (≈ 1.79 µg/mL) |  | CYP2C9 inhibition (in words) (CYP2C9; preincubated for 30 min prior to the addition of NADPH): minimal CYP2C9 inhibition; CYP2C19 inhibition (in words), preincubated (CYP2C19; preincubated for 30 min prior to initiation of catalysis): strong inhibitory activity
CNCC1CC(c2ccc(OC(F)(F)F)cc2)N1Cc1ccccc1OC(F)(F)F (centres unmarked) [BGAz-005] | 117 µM (≈ 50.8 µg/mL) | 21 µM (≈ 9.12 µg/mL) | 20 µM (≈ 8.69 µg/mL) | 21 µM (≈ 9.12 µg/mL) | approximately three-fold increase | > 20 µM | > 20 µM | < 0.01 | 12.7 µM | > 20 µM | > 20 µM | significant inhibition | 0.01 µM | 0.06 µM | 15.8 µM | > 20 µM | 36 µL/min/mg | 7.2 µM (≈ 3.13 µg/mL) | negligible inhibition | 
FC(F)(F)Oc1ccc(C2CC(CN3CCCC3)N2Cc2ccccc2OC(F)(F)F)cc1 (centres unmarked) [BGAz-002] | 57 µM (≈ 27 µg/mL) | 15 µM (≈ 7.12 µg/mL) | 14 µM (≈ 6.64 µg/mL) | 15 µM (≈ 7.12 µg/mL) | approximately three- to four-fold increase | > 20 µM | > 20 µM | < 0.01 |  | > 20 µM | > 20 µM | significant inhibition | 0.08 µM | 0.19 µM | > 20 µM | > 20 µM | 166 µL/min/mg | 6.2 µM (≈ 2.94 µg/mL) | negligible inhibition | IC50 (hERG; human, CHO cells stably expressing hERG, pH 7.4): > 167 µM; inhibition at 167 µM (hERG; human, pH 7.4, 167 μM, read-out: hERG inhibition at top test concentration): < 50%
